Laboratory results from patent US10988485B2 (Amgen Inc., priority 2018, dated 2021).

Biological target: GDP-bound KRAS protein (aa 1-169), containing both G12C and C118A amino acid substitutions (Homo sapiens, UniProt P01116, C118A/G12C)
Assay: Coupled Nucleotide Exchange Assay (SOS-mediated nucleotide exchange, AlphaScreen)
Assay type: biochemical
Settings: compound pre-incubation either 5 min or 2 hours (not stated per compound); SOS and GTP added, cRAF AlphaScreen read-out
Protocol: For compounds in Table 6, the following assay conditions were employed:
Coupled Nucleotide Exchange Assay: Purified GDP-bound KRAS protein (aa 1-169), containing both G12C and C118A amino acid substitutions and an N-terminal His-tag, was pre-incubated in assay buffer (25 mM HEPES pH 7.4, 10 mM MgCl2, and 0.01% Triton X-100) with a compound dose-response titration for either 5 min or 2 hours (see Table 15). Following compound pre-incubation, purified SOS protein (aa 564-1049) and GTP (Roche 10106399001) were added to the assay wells and incubated for an additional 30 min (for 5 min compound pre-incubation) or 1 hour (for 2 hour compound pre-incubation). To determine the extent of inhibition of SOS-mediated nucleotide exchange, purified GST-tagged cRAF (aa 1-149), nickel chelate AlphaLISA acceptor beads (PerkinElmer AL108R), and AlphaScreen glutathione donor beads (PerkinElmer 6765302) were added to the assay wells and incubated for 10 minutes. The assay plates were then read on a PerkinElmer EnVision Multilabel Reader, using AlphaScreen® technology, and data were analyzed using a 4-parameter logistic model to calculate IC50 values.

Sequence of GDP-bound KRAS protein (aa 1-169), containing both G12C and C118A amino acid substitutions (P01116 1-169 isoform P01116-2 G12C/C118A): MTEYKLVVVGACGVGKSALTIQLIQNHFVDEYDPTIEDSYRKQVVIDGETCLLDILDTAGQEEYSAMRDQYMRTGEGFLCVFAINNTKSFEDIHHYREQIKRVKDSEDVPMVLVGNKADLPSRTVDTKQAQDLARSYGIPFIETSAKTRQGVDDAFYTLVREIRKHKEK

Row | IC50 | Compound
1 | 80 nM | C=CC(=O)N1C[C@H](C)N(C2=NS(=O)(=O)N(c3ccccc3C(C)(C)C)c3nc(-c4ccccc4S(C)(=O)=O)c(Cl)cc32)C[C@H]1C (atropisomer, axis not shown) [Example 1-10-1]
2 | 5950 nM | C=CC(=O)N1C[C@H](C)N(C2=NS(=O)(=O)N(c3ccccc3C(C)(C)C)c3nc(-c4ccccc4S(C)(=O)=O)c(Cl)cc32)C[C@H]1C (atropisomer, axis not shown) [Example 1-10-2]
3 | 1270 nM | C=CC(=O)N1C[C@H](C)N(C2=NS(=O)(=O)N(c3c(C)cc(N)nc3C(C)C)c3nc(-c4ccccc4F)c(Cl)cc32)C[C@H]1C (atropisomer, axis not shown) [Example 10, 1-((2R,5S)-4-(1-(6-Amino-4-methyl-2-(2-propanyl)-3-pyridinyl)-6-chloro-7-(2-fluorophenyl)-2,2-dioxido-1H-pyrido[2,3-c][1,2,6]thiadiazin-4-yl)-2,5-dimethyl-1-piperazinyl)-2-propen-1-one]
4 | 3500 nM | C=CC(=O)N1C[C@H](C)N(C2=NS(=O)(=O)N(c3c(C)cc(N)nc3C(C)C)c3nc(-c4ccccc4F)c(Cl)cc32)C[C@H]1C (atropisomer, axis not shown) [Example 10-1, 1-((2R,5S)-4-(1-(6-amino-4-methyl-2-(2-propanyl)-3-pyridinyl)-6-chloro-7-(2-fluorophenyl)-2,2-dioxido-1H-pyrido[2,3-c][1,2,6]thiadiazin-4-yl)-2,5-dimethyl-1-piperazinyl)-2-propen-1-one]
5 | 390 nM | C=CC(=O)N1C[C@H](C)N(C2=NS(=O)(=O)N(c3c(C)cc(N)nc3C(C)C)c3nc(-c4ccccc4F)c(Cl)cc32)C[C@H]1C (atropisomer, axis not shown) [Example 10-2, 1-((2R,5S)-4-(1-(6-amino-4-methyl-2-(2-propanyl)-3-pyridinyl)-6-chloro-7-(2-fluorophenyl)-2,2-dioxido-1H-pyrido[2,3-c][1,2,6]thiadiazin-4-yl)-2,5-dimethyl-1-piperazinyl)-2-propen-1-one]
6 | 10 nM | C=CC(=O)N1C[C@H](C)N(C2=NS(=O)(=O)N(c3ccccc3C(C)(C)C)c3nc(-c4c(N)cccc4F)c(Cl)cc32)C[C@H]1C (single isomer, unassigned) [Example 1-8-1]
7 | 69300 nM | C=CC(=O)N1C[C@H](C)N(C2=NS(=O)(=O)N(c3ccccc3C(C)(C)C)c3nc(-c4c(N)cccc4F)c(Cl)cc32)C[C@H]1C (single isomer, unassigned) [Example 1-8-2]
8 | 540 nM | C=CC(=O)N1C[C@H](C)N(C2=NS(=O)(=O)N(c3c(C)cnn3C(C)C)c3nc(-c4ccccc4F)c(Cl)cc32)C[C@H]1C (single isomer, unassigned) [Example 1-11-1]
9 | 3550 nM | C=CC(=O)N1C[C@H](C)N(C2=NS(=O)(=O)N(c3c(C)ccnc3C(C)C)c3nc(-c4ccccc4C)c(Cl)cc32)C[C@H]1C (single isomer, unassigned) [Example 1-12-2]
10 | 170 nM | C=CC(=O)N1C[C@H](C)N(C2=NS(=O)(=O)N(c3c(N)ncnc3C(C)C)c3nc(-c4ccccc4F)c(Cl)cc32)C[C@H]1C (single isomer, unassigned) [Example 9-1]
11 | 11200 nM | C=CC(=O)N1C[C@H](C)N(C2=NS(=O)(=O)N(c3c(N)ncnc3C(C)C)c3nc(-c4ccccc4F)c(Cl)cc32)C[C@H]1C (single isomer, unassigned) [Example 9-2]
12 | 150 nM | C=CC(=O)N1C[C@H](C)N(C2=NS(=O)(=O)N(c3ccccc3C(C)(C)C)c3nc(-c4ccccc4F)c(Cl)cc32)C[C@H]1C [Example 1-1-1, 1-((2R,5S)-4-(6-chloro-7-(2-fluorophenyl)-1-(2-(2-methyl-2-propanyl)phenyl)-2,2-dioxido-1H-pyrido[2,3-c][1,2,6]thiadiazin-4-yl)-2,5-dimethyl-1-piperazinyl)-2-propen-1-one]
13 | 70800 nM | C=CC(=O)N1C[C@H](C)N(C2=NS(=O)(=O)N(c3ccccc3C(C)(C)C)c3nc(-c4ccccc4F)c(Cl)cc32)C[C@H]1C [Example 1-1-2, 1-((2R,5S)-4-(6-chloro-7-(2-fluorophenyl)-1-(2-(2-methyl-2-propanyl)phenyl)-2,2-dioxido-1H-pyrido[2,3-c][1,2,6]thiadiazin-4-yl)-2,5-dimethyl-1-piperazinyl)-2-propen-1-one]
14 | 2690 nM | C=CC(=O)N1C[C@H](C)N(C2=NS(=O)(=O)N(c3c(CC)cccc3CC)c3nc(-c4ccccc4F)c(Cl)cc32)C[C@H]1C [Example 1-6, 1-((2R,5S)-4-(6-chloro-1-(2,6-diethylphenyl)-7-(2-fluorophenyl)-2,2-dioxido-1H-pyrido[2,3-c][1,2,6]thiadiazin-4-yl)-2,5-dimethyl-1-piperazinyl)-2-propen-1-one]
15 | 890 nM | C=CC(=O)N1C[C@H](C)N(C2=NS(=O)(=O)N(c3c(CC)cccc3CC)c3nc(-c4c(N)cccc4F)c(Cl)cc32)C[C@H]1C [Example 1-7, 1-((2R,5S)-4-(7-(2-amino-6-fluorophenyl)-6-chloro-1-(2,6-diethylphenyl)-2,2-dioxido-1H-pyrido[2,3-c][1,2,6]thiadiazin-4-yl)-2,5-dimethyl-1-piperazinyl)-2-propen-1-one]
16 | 110 nM | C=CC(=O)N1C[C@H](C)N(C2=NS(=O)(=O)N(c3ccccc3C(C)(C)C)c3nc(-c4ccccc4S(C)(=O)=O)c(Cl)cc32)C[C@H]1C [Example 1-10]
17 | 600 nM | C=CC(=O)N1C[C@H](C)N(C2=NS(=O)(=O)N(c3c(C)ccnc3C(C)C)c3nc(-c4ccccc4C)c(Cl)cc32)C[C@H]1C [Example 1-12, 1-((2R,5S)-4-(6-chloro-7-(2-methylphenyl)-1-(4-methyl-2-(2-propanyl)-3-pyridinyl)-2,2-dioxido-1H-pyrido[2,3-c][1,2,6]thiadiazin-4-yl)-2,5-dimethyl-1-piperazinyl)-2-propen-1-one]
18 | 40 nM | C=CC(=O)N1C[C@H](C)N(C2=NS(=O)(=O)N(c3ccc(CN(C)C)cc3C(C)(C)C)c3nc(-c4ccccc4F)c(Cl)cc32)C[C@H]1C [Example 1-13-1, 1-((2R,5S)-4-(6-chloro-1-(4-((dimethylamino)methyl)-2-(2-methyl-2-propanyl)phenyl)-7-(2-fluorophenyl)-2,2-dioxido-1H-pyrido[2,3-c][1,2,6]thiadiazin-4-yl)-2,5-dimethyl-1-piperazinyl)-2-propen-1-one]
19 | 3870 nM | C=CC(=O)N1C[C@H](C)N(C2=NS(=O)(=O)N(c3ccc(CN(C)C)cc3C(C)(C)C)c3nc(-c4ccccc4F)c(Cl)cc32)C[C@H]1C [Example 1-13-2, 1-((2R,5S)-4-(6-chloro-1-(4-((dimethylamino)methyl)-2-(2-methyl-2-propanyl)phenyl)-7-(2-fluorophenyl)-2,2-dioxido-1H-pyrido[2,3-c][1,2,6]thiadiazin-4-yl)-2,5-dimethyl-1-piperazinyl)-2-propen-1-one]
20 | 530 nM | C=CC(=O)N1CCN(C2=NS(=O)(=O)N(c3c(C)ccnc3C(C)C)c3nc(-c4ccccc4F)c(Cl)cc32)[C@@H](C)C1 [Example 2-2, (S)-1-(4-(6-chloro-7-(2-fluorophenyl)-1-(2-isopropyl-4-methylpyridin-3-yl)-2,2-dioxido-1H-pyrido[2,3-c][1,2,6]thiadiazin-4-yl)-3-methylpiperazin-1-yl)prop-2-en-1-one]
21 | 800 nM | C=CC(=O)N1CCN(C2=NS(=O)(=O)N(c3ccccc3CC(C)C)c3nc(-c4ccccc4F)c(Cl)cc32)[C@@H](C)C1 [Example 3-2, 1-((3S)-4-(6-chloro-7-(2-fluorophenyl)-1-(2-(2-methylpropyl)phenyl)-2,2-dioxido-1H-pyrido[2,3-c][1,2,6]thiadiazin-4-yl)-3-methyl-1-piperazinyl)-2-propen-1-one]
22 | 5960 nM | C=CC(=O)N1C[C@H](C)N(C2=NS(=O)(=O)N(c3c(C)cc(CN(C)C)nc3C(C)C)c3nc(-c4ccccc4F)c(Cl)cc32)C[C@H]1C [Example 4, 1-((2R,5S)-4-(6-Chloro-1-(6-((dimethylamino)methyl)-4-methyl-2-(2-propanyl)-3-pyridinyl)-7-(2-fluorophenyl)-2,2-dioxido-1H-pyrido[2,3-c][1,2,6]thiadiazin-4-yl)-2,5-dimethyl-1-piperazinyl)-2-propen-1-one]
23 | 1030 nM | C=CC(=O)N1CCN(C2=NS(=O)(=O)N(c3ccccc3C(C)C)c3nc(-c4c(O)cccc4F)c(F)cc32)[C@@H](C)C1 [Example 5, 1-((3S)-4-(6-Fluoro-7-(2-fluoro-6-hydroxyphenyl)-1-(2-isopropylphenyl)-2,2-dioxido-1H-pyrido[2,3-c][1,2,6]thiadiazin-4-yl)-3-methylpiperazin-1-yl)prop-2-en-1-one]
24 | 16400 nM | C=CC(=O)N1C[C@H](C)N(C2=NS(=O)(=O)Nc3nc(-c4ccccc4F)c(Cl)cc32)C[C@H]1C [Example 7, 1-((2R,5S)-4-(6-Chloro-7-(2-fluorophenyl)-2,2-dioxido-1H-pyrido[2,3-c][1,2,6]thiadiazin-4-yl)-2,5-dimethyl-1-piperazinyl)-2-propen-1-one]
